Values joined by “and” are separate entries in the source; they are usually repeats but may differ in a detail not shown here. Equal entries are not always repeated. “Also recorded” adds a separate entry of the source.
Tests used:
Cdk9/CycT1 = target: T1, Cdk9/CycT1 (Homo sapiens, UniProt P50750); experiment: SPR single-cycle kinetics, Cdk9/CycT1; details: 1:1 binding model
T1 construct: Full-length, human, WT Cdk9 (residues 1–372, UniProt P50750); made in house; host or cells: Cdk9: Sf9 insect cells; CycT1: E. coli
Protocol: The protein kinases were immobilized on a CM5 chip using the amine-coupling method. […] The fully active and T-loop phosphorylated kinase preparations of Cdk12∗/CycK and Cdk13∗/CycK were obtained through coexpression with Cdk-activating kinase 1 (CAK1) from Saccharomyces cerevisiae. […] For comparison, we measured the affinity of NVP-2 for active kinases Cdk12∗/CycK and its proposed target Cdk9/CycT1 by SPR.
SPR experiments were conducted on a Biacore 8K (Cytiva) device. The system was equilibrated in running buffer (20 mM Tris pH 8, 150 mM NaCl, 1 mM tris(2-carboxyethyl)phosphine, 0.1 mM MgCl2, 0.05% Tween20, and 2% DMSO) at 25 °C. Flow cell 1 and 2 surfaces of a CM5 sensor chip (Cytiva) were conditioned with 50 mM NaOH at a flow rate of 30 μl/min for 15 s and subsequently activated with a 1:1 mix of 0.1 M N-hydroxysuccinimide (NHS) and 0.1 M 3-(N,N-dimethylamino) propyl-N-ethyl-carbodiimide (EDC) at a flow rate of 10 μl/min for 7 min. The flow system was washed with 1 M enthanolamine (pH 8). WT and mutant kinases Cdk12/CycK, Cdk13/CycK and Cdk9/CycT1 were diluted in Mes (pH 6.5) to a final concentration of 2 μM. Immobilization of kinases was performed in running buffer without DMSO using the amine coupling method on flow cell 2 surface for 160 s at a flow rate of 10 μl/min. Free binding sites were blocked with 1 M ethanolamine pH 8.0 (10 μl/min) for 7 min. […]

Cdk12/CycK [1] = target: T2, Cdk12/CycK (Homo sapiens, UniProt Q9NYV4); experiment: radioactive in vitro kinase assay, Cdk12/CycK; assay type: biochemical; details: 20 min; for inhibitory effect on Cdk12/CycK activity, in words: 0, 0.1, 1, 10, 100 μM compound, 0.2 μM Cdk12, 0.2 mM ATP, His-c-Myc; for IC50: 0.2 μM kinase, 0.2 mM ATP, 50 μM His-c-Myc, sigmoidal fit
T2 construct: GST (TEV site) (N, cleaved yes); made in house; host or cells: Sf9 insect cells, co-expressed with S. cerevisiae CAK1
Protocol: To a concentration of 0.2 μM kinase and 0.2 mM ATP, a compound concentration ranging from 0.1 nM to 1 mM was applied. Kinase reactions were started by the addition of 100 μM CTD peptide containing three hepta-repeats continuously prephosphorylated at position S7 (pS7-CTD[3]) and terminated after 60 min incubation time. In vitro IC50-values were determined by applying a sigmoidal fit to dose-response measurements (Fig. 1A).
Cdk12 kinase (0.2 μM) in the presence of 0.2 mM ATP were supplemented with respective compounds at concentrations of 0, 0.1, 1, 10, and 100 μM for 5 min. Upon addition of 50 μM His-c-Myc substrate the kinase assay reaction was conducted for 20 min.
Radioactive kinase activity assays were performed in a total volume of 15 μl per sample in kinase assay buffer (50 mM Hepes/pH 7.6, 34 mM KCl, 7 mM MgCl2, 5 mM β-glycerol phosphate, and 2.5 mM dithioerythritol). Preincubation of 0.2 μM or 0.02 μM recombinant protein kinase with indicated concentrations of respective inhibitor and 0.2 to 2 mM ATP containing 0.45 mCi [^32P]-γ-ATP/ml (PerkinElmer) was carried out for 5 min. Kinase reactions were started by addition of substrate protein (10 μM GST-Rb1 for Cdk4/CycD3, 10 μM GST-CTD[52] for Cdk7/CycH/MAT1, 50 μM His-c-Myc for all others) and incubated for 20 min at 30 °C in a shaking incubator at 300 rpm. For pS7-CTD[3] peptide, the substrate concentration was increased to 100 μM and assays were performed for 60 min. Reactions were terminated by the addition of EDTA to a final concentration of 50 mM. Reaction samples were separately spotted onto Amersham Protran nitrocellulose membranes (GE HealthCare) and subsequently washed three times for 5 min in PBS. Samples were transferred to 4 ml liquid scintillation vials and 2 ml liquid scintillator (Ultima Gold) were added. Radioactive counts were determined in a Beckman Liquid Scintillation Counter (Beckman Coulter) for 1 min. […] For analysis of dose response measurements and IC50 value determination, data of inhibitor-supplemented samples were normalized to DMSO solvent controls and their activity plotted against the inhibitor concentration. IC50 values were extracted from triplicate measurements by sigmoidal curve fitting using DataGraph (v. 5.0; https://www.visualdatatools.com/DataGraph/) or were determined by applying the Morrison quadratic equation for tight binding inhibitors using GraphPad Prism 10 (https://www.graphpad.com/) ([40]).

Cdk12/CycK [2] = target: T2, Cdk12/CycK; experiment: SPR single-cycle kinetics, active Cdk12*/CycK; details: T-loop phosphorylated active kinase (CAK1 coexpressed), 1:1 binding model
[3] = target: T3, Cdk12 kinase domain (residues 714–1063), T-loop phosphorylated, coexpressed with CAK1 (human, UniProt Q9NYV4 714-1063, phosphothreonine at 893 (pT893)); experiment: crystal structure; Cdk12/CycK at 12 mg/ml with 5-fold excess of SR-4835; hanging drop vapor diffusion at 15 °C; 0.1 M Mops pH 6.5, 30% PEG mix, 0.1 M NDSB; 2.68 Å; details: both partners purified
T3 construct: kinase domain of human Cdk12, residues 714–1063, UniProt Q9NYV4; synthetic codon-optimised gene; The final model of 8P81 holds residues 716 to 1032 of Cdk12; also called cyclin-dependent kinase 12; not shown: GST, N-terminal, cleaved
T3 sequence (Q9NYV4 714-1063): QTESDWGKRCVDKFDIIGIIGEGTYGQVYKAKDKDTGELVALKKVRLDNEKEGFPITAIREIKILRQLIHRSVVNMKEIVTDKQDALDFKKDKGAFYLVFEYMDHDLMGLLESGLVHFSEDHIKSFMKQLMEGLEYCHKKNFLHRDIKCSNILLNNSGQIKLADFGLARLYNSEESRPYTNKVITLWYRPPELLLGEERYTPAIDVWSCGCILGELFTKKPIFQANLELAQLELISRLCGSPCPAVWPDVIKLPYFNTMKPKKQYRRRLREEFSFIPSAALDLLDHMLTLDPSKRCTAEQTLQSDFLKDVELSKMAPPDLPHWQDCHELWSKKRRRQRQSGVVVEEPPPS

T2 sequence (Q9NYV4 714-1063, one chain of several): as the sequence (Q9NYV4 714-1063) above
T1 sequence (P50750 whole entry, the tested form may be a part): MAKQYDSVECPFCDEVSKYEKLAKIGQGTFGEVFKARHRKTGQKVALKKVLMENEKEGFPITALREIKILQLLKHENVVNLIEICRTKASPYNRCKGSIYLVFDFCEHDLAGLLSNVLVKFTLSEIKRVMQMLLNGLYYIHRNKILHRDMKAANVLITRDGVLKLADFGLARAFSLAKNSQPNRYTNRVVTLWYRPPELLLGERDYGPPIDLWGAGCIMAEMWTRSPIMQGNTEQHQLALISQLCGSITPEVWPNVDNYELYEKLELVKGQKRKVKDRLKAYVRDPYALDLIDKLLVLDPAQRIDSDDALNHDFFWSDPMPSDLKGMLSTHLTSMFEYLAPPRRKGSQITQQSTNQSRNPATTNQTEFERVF
T1 sequence (O60563 1-272 partner limits assumed): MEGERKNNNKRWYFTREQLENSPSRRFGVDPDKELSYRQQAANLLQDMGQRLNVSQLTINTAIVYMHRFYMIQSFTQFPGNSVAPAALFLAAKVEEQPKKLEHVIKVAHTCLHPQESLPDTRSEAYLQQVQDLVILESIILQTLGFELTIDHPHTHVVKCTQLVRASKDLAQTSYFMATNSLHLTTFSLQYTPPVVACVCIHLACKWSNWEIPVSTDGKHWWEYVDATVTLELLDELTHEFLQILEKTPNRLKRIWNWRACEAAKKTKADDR

Molecule	inhibitory effect on Cdk12/CycK activity, in words (Cdk12/CycK [1])	IC50 (Cdk12/CycK [1]) [nM]	also measured
CCN1CCN(Cc2ccc(Nc3ncc(F)c(-c4cc(F)c5nc(C)n(C(C)C)c5c4)n3)nc2)CC1 [abemaciclib]	modest effects; also recorded: only weak efficacy	1300	
CCc1cnn2c(NCc3ccc[n+]([O-])c3)cc(N3CCCC[C@H]3CCO)nc12 [dinaciclib]	highest potency		
CN1CC[C@H](c2c(O)cc(O)c3c(=O)cc(-c4ccccc4Cl)oc23)[C@H](O)C1 [flavopiridol]	modest effects		
CC(=O)c1c(C)c2cnc(Nc3ccc(N4CCNCC4)cn3)nc2n(C2CCCC2)c1=O [palbociclib]	no inhibitory effect		
CN(C)C(=O)c1cc2cnc(Nc3ccc(N4CCNCC4)cn3)nc2n1C1CCCC1 [ribociclib]	no inhibitory effect		
CN1CCN(c2ccc(Nc3ncc4cc5n(c4n3)C3(CCCCC3)CNC5=O)nc2)CC1 [trilaciclib]	modest effects; also recorded: only weak efficacy	1340	
cyclin K cyclin box domains (residues 1–267) (domain or fragment, human, UniProt O75909 1-267, looked up, cyclin box domains of human cyclin K, residues 1–267, UniProt O75909; synthetic codon-optimised gene; The final model of 8P81 holds residues 20 to 260 of CycK; also called CycK; not shown: GST, N-terminal, cleaved) MKENKENSSPSVTSANLDHTKPCWYWDKKDLAHTPSQLEGLDPATEARYRREGARFIFDVGTRLGLHYDTLATGIIYFHRFYMFHSFKQFPRYVTGACCLFLAGKVEETPKKCKDIIKTARSLLNDVQFGQFGDDPKEEVMVLERILLQTIKFDLQVEHPYQFLLKYAKQLKGDKNKIQKLVQMAWTFVNDSLCTTLSLQWEPEIIAVAVMYLAGRLCKFEIQEWTSKPMYRRWWEQFVQDVPVDVLEDICHQILDLYSQGKQQMPH			binding result [3]: binds

The next lines start with results.

inhibitory effect on Cdk12/CycK activity, in words (Cdk12/CycK [1])	IC50 (Cdk12/CycK [1]) [nM]	Molecule	also measured
highest potency	40.9	COC[C@@H](C)NC1CCC(Nc2cc(-c3cccc(NCC4(C#N)CCOCC4)n3)c(Cl)cn2)CC1 (some centres unmarked) [NVP-2]	Kd (Cdk9/CycT1): 0.1 nM; Kd (Cdk12/CycK [2]): 2.9 nM and 2.88 nM
modest effects	87.2	CN(C)C/C=C/C(=O)Nc1ccc(C(=O)Nc2cccc(Nc3ncc(Cl)c(-c4c[nH]c5ccccc45)n3)c2)cc1 [THZ1]	
modest effects	174	CN(C)C/C=C/C(=O)Nc1ccc(C(=O)N2CCC[C@@H](Nc3ncc(Cl)c(-c4c[nH]c5ccccc45)n3)C2)cc1 [THZ531]	

From paper PMC10767194 (The Journal of Biological Chemistry, 2023)
